Reference: patent US20250388643A1, “GLUCAGON-LIKE PEPTIDE-2 COMPOSITIONS AND METHODS OF MAKING AND USING SAME” (Amunix Pharmaceuticals, Inc., priority 2011, published 2025)
Like-named read-outs stand apart in the source and are kept apart here.

Experiments:
[1] = cited from earlier work; for terminal half-life: in humans
[2] = test system: indomethacin-induced intestinal inflammation in Wistar rats; format: in vivo, rat
Protocol: Study 2: Intestinal inflammation was induced in eighty male Wistar rats (Harlan Sprague Dawley) using indomethacin administered on Days 0 and 1 of the experiment. The rats were divided into eight treatment groups for treatment according to Table 20. All treatments were administered per the schedule starting on Day-3 of the experiment. Body weights were determined daily. On Day 2 (24 hours post-2nd indomethacin dose), the animals were prepped for sacrifice and analysis. Thirty minutes prior to sacrifice, the rats were injected intravenously with 1 ml 1% Evans Blue dye, in order to visualize ulcers and extent of inflammation by histopathology analysis. The rats were anesthetized and blood samples were removed to determine the concentration of GLP-2-2G-XTEN using the anti-XTEN/anti-GLP2 ELISA method. The rats were euthanized then necropsied and scored by gross examination of the intestines for the presence of adhesions; i.e., none=0, mild=1, moderate=2, or severe=3. The small intestines were removed and the length of each was recorded. In each small intestine, a longitudinal incision was made and the interior was examined. The degree and length of the ulcerated area was recorded as a score; i.e., none=0, few=1, multiple=2, or continuous=3. The fecal material was washed away with saline and blotted to remove excess fluid and each small intestine was weighed then processed for histopathology examination to quantitate the degree of inflammation; i.e., 0.0%=0, 1-33%=1, 34-66%=2, 67-100%=3.

[3] = test system: small intestine growth in rats; experiment: Intestinotrophic growth in normal rats (small intestine weight and length); format: in vivo, rat; settings: normal Sprague-Dawley rats, SC 12 days; peptide 12.5 nmol/kg twice daily, fusion protein 25 nmol/kg once daily
Protocol: To determine the intestinotrophic properties of GLP2-XTEN, small intestine growth in rats was measured as a primary pharmacodynamic endpoint. […] GLP2-2G-XTEN was dosed at 25 nmol/kg once daily for 12 days. After sacrifice, a midline incision was made, the small intestines were removed, stretched to their maximum length and the length recorded. The fecal material was flushed from the lumen and the small intestinal wet weight recorded. The small intestine length and weight data were analyzed with an ANOVA model with a Tukey/Kramer post-hoc test for pairwise comparisons, with significance at p=0.05.

[4] = test system: indomethacin-induced intestinal inflammation in Wistar rats; experiment: Rat Crohn's Disease indomethacin-induced intestinal inflammation model, Study 1; format: in vivo
Protocol: To determine the efficacy of GLP2-XTEN using single dose or qd dosing, the GLP2-2G-XTEN-AE864 fusion protein was evaluated in a rat model of Crohn's Disease of indomethacin-induced intestinal inflammation in three separate studies.
Study 1: Intestinal inflammation was induced in eighty male Wistar rats (Harlan Sprague Dawley) using indomethacin administered on Days 0 and 1 of the experiment. The rats were divided into seven treatment groups for treatment according to Table 19.
All treatments were administered per the schedule starting on Day −3 of the experiment. Body weights were determined daily. Groups 3 and 5 were dosed equimolar/day. On Day 2 (24 hours post-2nd indomethacin dose), the animals were prepped for sacrifice and analysis. Thirty minutes prior to sacrifice, the rats were injected intravenously with 1 ml 1% Evans Blue dye, in order to visualize ulcers and extent of inflammation by histopathology analysis. The rats were anesthetized (SOP 1810), blood samples were removed to determine the concentration of GLP-2-2G-XTEN using the anti-XTEN/anti-GLP2 ELISA method. The rats were euthanized then necropsied and scored by gross examination of the intestines for the presence of adhesions; i.e., none=0, mild=1, moderate=2, or severe=3. The small intestines were removed and the length of each was recorded. In each small intestine, a longitudinal incision was made and the interior was examined. The degree and length of the ulcerated area was recorded as a score; i.e., none=0, few=1, multiple=2, or continuous=3. For TNFα determination, intestinal samples were thawed and homogenized in a total of 20 ml with DPBS. The supernatants were equilibrated to room temperature and assayed for TNFα by ELISA (R&D Systems, Cat. RTA00, lot 281687, exp. 7 Sep. 2011). The samples for Group 1 were assayed undiluted. The samples for Groups 2-7 were diluted 1:4. For histopathology, the small intestines were gently washed with saline to remove the fecal material and were blotted to remove excess fluid. Each small intestine was weighed then processed for histopathology examination to quantitate the degree of inflammation; i.e., 0.0%=0, 1-33%=1, 34-66%=2, 67-100%=3.

[5] = test system: indomethacin-induced intestinal inflammation in Wistar rats; experiment: Rat Crohn's Disease indomethacin-induced intestinal inflammation model, Study 3; format: in vivo
Protocol: Study 3: A third indomethacin-induced inflammation study was performed to verify previous results and test additional dose regimens. Intestinal inflammation was induced in male Wistar rats (Harlan Sprague Dawley) using indomethacin administered on Days 0 and 1 of the experiment according to Table 21.
All treatments were administered per the schedule starting on Day-3 of the experiment. Body weights were determined daily. On Day 2 (24 hours post-2nd indomethacin dose), the animals were prepped for sacrifice and analysis. The small intestines were removed and the length of each was recorded. Quantitative histopathology was performed on a subset of samples. Rat small intestine samples consisted of a 3 cm section of proximal jejunum and a 3 cm section of mid-jejunum collected 15 cm and 30 cm from the pylorus, respectively. Samples were fixed in 10% neutral buffered formalin. Samples were trimmed into multiple sections without bias toward lesion presence or absence. These sections were placed in cassettes, embedded in paraffin, microtomed at approximately 4 microns thickness, and stained with hematoxylin and eosin (H&E). The slides were evaluated microscopically by a board certified veterinary pathologist and scored for villous height as well as infiltration/inflammation, mucosal atrophy, villi/crypt appearance, abscesses/ulceration. A 1 to 4 severity grading scale was used, where 1=minimal, 2=mild, 3=moderate, 4=marked/severe, reflecting the combination of the cellular reactions seen histopathologically. Small intestine length was analyzed with an ANOVA model with a Tukey/Kramer post-hoc test for pairwise comparisons, with significance at p=0.05. Non-parametric histology score variables were compared with the vehicle control using a Mann Whitney U test with a Bonferroni correction for the p-value to create an overall alpha of 0.05.

[6] = test system: DSS-induced intestinal colitis in C57Bl/6 mice; experiment: Murine acute DSS-induced colitis model; format: in vivo, mouse; settings: DSS-treated mice
Protocol: To determine the efficacy of GLP2-XTEN, the GLP2-2G-XTEN-AE864 fusion protein was evaluated in a mouse model of intestinal inflammatory colitis. […] A naïve, non-treated control group (group 1) was given normal drinking water for the duration of the experiment. […] Tissues were fixed in formalin and then transferred to ethanol for staining and histopathology. The anatomical data was analyzed with an ANOVA model with a Tukey/Kramer post-hoc test for pairwise comparisons, with significance at p=0.05.

Q: Which results are given for `CC[C@H](C)[C@H](NC(=O)[C@H](Cc1ccccc1)NC(=O)[C@H](CC(=O)O)NC(=O)[C@H](CCCNC(=N)N)NC(=O)[C@H](C)NC(=O)[C@H](C)NC(=O)[C@H](CC(C)C)NC(=O)[C@H](CC(N)=O)NC(=O)[C@H](CC(=O)O)NC(=O)[C@H](CC(C)C)NC(=O)[C@@H](NC(=O)[C@@H](NC(=O)[C@H](CC(N)=O)NC(=O)[C@H](CCSC)NC(=O)[C@H](CCC(=O)O)NC(=O)[C@H](CC(=O)O)NC(=O)[C@H](CO)NC(=O)[C@H](Cc1ccccc1)NC(=O)[C@H](CO)NC(=O)CNC(=O)[C@H](CC(=O)O)NC(=O)CNC(=O)[C@@H](N)Cc1c[nH]cn1)[C@@H](C)O)[C@@H](C)CC)C(=O)N[C@@H](CC(N)=O)C(=O)N[C@@H](Cc1c[nH]c2ccccc12)C(=O)N[C@@H](CC(C)C)C(=O)N[C@H](C(=O)N[C@@H](CCC(N)=O)C(=O)N[C@H](C(=O)N[C@@H](CCCCN)C(=O)N[C@H](C(=O)N[C@H](C(=O)N[C@@H](CC(=O)O)C(=O)O)[C@@H](C)O)[C@@H](C)CC)[C@@H](C)O)[C@@H](C)CC` [teduglutide]?
A: terminal half-life ([1]; reported (Marier 2008)): 192 min; terminal half-life ([1]; reported (Marier 2010)): 54 to 138 min; half life ([1]; reported (Marier 2010)): 54 to 138 min

Q: With “native GLP-2: human glucagon-like peptide-2, 33 amino acids, HADGSFSDEMNTILDNLAARDFINWLIQTKITD (SEQ ID NO: 2)” as the compound, how does the “half-life (terminal half-life in humans)” value ([1]; human, in vivo) read?
A: approximately seven minutes

Q: With `CC[C@H](C)[C@H](NC(=O)[C@H](Cc1ccccc1)NC(=O)[C@H](CC(=O)O)NC(=O)[C@H](CCCNC(=N)N)NC(=O)[C@H](C)NC(=O)[C@H](C)NC(=O)[C@H](CC(C)C)NC(=O)[C@H](CC(N)=O)NC(=O)[C@H](CC(=O)O)NC(=O)[C@H](CC(C)C)NC(=O)[C@@H](NC(=O)[C@@H](NC(=O)[C@H](CC(N)=O)NC(=O)[C@H](CCSC)NC(=O)[C@H](CCC(=O)O)NC(=O)[C@H](CC(=O)O)NC(=O)[C@H](CO)NC(=O)[C@H](Cc1ccccc1)NC(=O)[C@H](CO)NC(=O)CNC(=O)[C@H](CC(=O)O)NC(=O)CNC(=O)[C@@H](N)Cc1c[nH]cn1)[C@@H](C)O)[C@@H](C)CC)C(=O)N[C@@H](CC(N)=O)C(=O)N[C@@H](Cc1c[nH]c2ccccc12)C(=O)N[C@@H](CC(C)C)C(=O)N[C@H](C(=O)N[C@@H](CCC(N)=O)C(=O)N[C@H](C(=O)N[C@@H](CCCCN)C(=O)N[C@H](C(=O)N[C@H](C(=O)N[C@@H](CC(=O)O)C(=O)O)[C@@H](C)O)[C@@H](C)CC)[C@@H](C)O)[C@@H](C)CC` [GLP2-2G peptide, reference compound] as the compound, how does the “histopathology: protective effects” value ([2]; daily bid peptide, once-daily fusion protein) read?
A: most pronounced in the ileum, but were also seen in the jejunum

Q: What about the adhesions score ([2]; once-daily fusion protein, daily bid peptide, FIG. 22B) of the same compound?
A: reached statistically significant difference

Q: What about the small intestine length ([2]; once-daily fusion protein, daily bid peptide, vs indomethacin-treated vehicle control) of the same compound?
A: reached statistically significant difference

Q: And the total disease score ([2]; peptide delivered bid, fusion protein delivered qd, vs indomethacin-treated vehicle control)?
A: significantly improved scores

Q: And the “increase in small intestine length” value [3]?
A: no significant effects

Q: What about the “increase in small intestine weight” value [3] of the same compound?
A: 24%

Q: What about the small intestine weight ([4]; 0.5 mg/kg peptide, both fusion protein groups, compared to diseased control Group 2, FIG. 21C) of the same compound?
A: significant increase

Q: And the small intestine length ([4]; FIG. 21B)?
A: significant increase

Q: What about the “ulceration (gross pathology scoring of small intestine)” value ([4]; FIG. 21D) of the same compound?
A: significant decreases in ulceration

Q: And the “small intestine inflammation score” value ([4]; FIG. 21F)?
A: neither the GLP-2-2G peptide nor the GLP-2-2G-XTEN fusion protein treatments showed a significant effect on inflammation

Q: And the “body weight at termination” value ([4]; compared to disease control (Group 2), FIG. 21A)?
A: did not have a significant increase in body weight

Q: What about the “scores of adhesions and transulceration” value ([4]; compared to diseased control (Group 2), FIG. 21E) of the same compound?
A: significant decreases

Q: What about the “TNFα in small intestine (ELISA)” value ([4]; compared to diseased control Group 2, FIG. 21G) of the same compound?
A: significantly decreased cytokine levels

Q: What about the villi height ([5]; fusion protein high (total dose 125 nmol/kg) and low (total dose 75 nmol/kg), FIG. 24B) of the same compound?
A: not significant

Q: And the “mucosal ulceration and mixed cell infiltrate” value ([5]; three treatment groups)?
A: not significant

Q: And the “growth in the assayed tissues (colon, small intestine, stomach)” value ([6]; BID days 1-10)?
A: did not induce significant growth

Q: And the “loss of body weight” value ([6]; SC days 1-10, peptide BID, fusion protein QD, any dose)?
A: neither the mice treated with GLP2-2G peptide nor any of the groups of mice treated with any dose of GLP2-2G-XTEN mice showed a reduced loss of body weight
